Test results taken from the supplement of paper PMC10307832.

Key:
Test in all cases: relative viability (nuclei count vs DMSO), 5 days (fraction); higher = more cells survive
NCI-H23 = system: NCI-H23
Procedure, shortened: (§1)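 After 5 days of treatment, lung cancer cells in 1536-well plates were fixed and stained in a single step (final 0.05% Triton X-100, 1% formaldehyde, 1 ug/ml Hoechst) and their nuclei counted on 4× images. Treatment had been applied by pin tool the day after seeding as one drug alone or as a fixed anchor-drug dose with five library-drug doses (not always all listed) in √10 steps. Relative viability is the nuclei count of treated wells divided by that of vehicle wells, and values are medians of duplicate plates.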

NCI-H1944 = system: NCI-H1944
Procedure, shortened: as §1

EKVX = system: EKVX
Procedure, shortened: as §1

SK-LU-1 = system: SK-LU-1
Procedure, shortened: as §1

EMC-BAC-2 = system: EMC-BAC-2
Procedure, shortened: as §1

LCLC-97TM1 = system: LCLC-97TM1
Procedure, shortened: as §1

HARA = system: HARA
Procedure, shortened: as §1

NCI-H2126 = system: NCI-H2126
Procedure, shortened: as §1

H3255 = system: H3255
Procedure, shortened: as §1

NCI-H322M = system: NCI-H322M
Procedure, shortened: as §1

NCI-H1437 = system: NCI-H1437
Procedure, shortened: as §1

HCC-827 = system: HCC-827
Procedure, shortened: as §1

NCI-H460 = system: NCI-H460
Procedure, shortened: as §1

HCC-15 = system: HCC-15
Procedure, shortened: as §1

NCI-H441 = system: NCI-H441
Procedure, shortened: as §1

LC-2-ad = system: LC-2-ad
Procedure, shortened: as §1

SW 900 = system: SW 900
Procedure, shortened: as §1

ChaGo-K-1 = system: ChaGo-K-1
Procedure, shortened: as §1

PC-3 [JPC-3] = system: PC-3 [JPC-3]
Procedure, shortened: as §1

NCI-H1915 = system: NCI-H1915
Procedure, shortened: as §1

NCI-H661 = system: NCI-H661
Procedure, shortened: as §1

LU99A = system: LU99A
Procedure, shortened: as §1

NCI-H1793 = system: NCI-H1793
Procedure, shortened: as §1

`CCCCCCCCCCCC1=C(O)C(=O)C=C(O)C1=O` [Embelin] + COc1cc2c(Oc3ccc(NC(=O)C4(C(=O)Nc5ccc(F)cc5)CC4)cc3F)ccnc2cc1OCCCN1CCOCC1 [Foretinib] (partner 0.25 µM) gave a relative viability (NCI-H23; first compound 0.08 µM) of 1.02, a relative viability (NCI-H23; first compound 0.8 µM) of 1.09 and a relative viability (NCI-H23; first compound 2.53 µM) of 1.07. For the same molecule, the relative viability (NCI-H23; first compound 8 µM) was 1.16, the relative viability (NCI-H1944; first compound 0.08 µM) was 0.842 and the relative viability (NCI-H1944; first compound 0.8 µM) was 0.968. For the same molecule, the relative viability (NCI-H1944; first compound 2.53 µM) was 0.989, the relative viability (NCI-H1944; first compound 8 µM) was 0.998 and the relative viability (EKVX; first compound 0.08 µM) was 0.789. It also gave a relative viability (EKVX; first compound 0.8 µM) of 0.926, a relative viability (EKVX; first compound 2.53 µM) of 0.625 and a relative viability (EKVX; first compound 8 µM) of 0.875. For the same molecule, the relative viability (SK-LU-1; first compound 0.08 µM) was 0.953, the relative viability (SK-LU-1; first compound 0.8 µM) was 0.861 and the relative viability (SK-LU-1; first compound 2.53 µM) was 1.04. It also gave a relative viability (SK-LU-1; first compound 8 µM) of 0.888, a relative viability (EMC-BAC-2; first compound 0.08 µM) of 1.05 and a relative viability (EMC-BAC-2; first compound 0.8 µM) of 1.09. It also gave a relative viability (EMC-BAC-2; first compound 2.53 µM) of 0.973, a relative viability (EMC-BAC-2; first compound 8 µM) of 1.07 and a relative viability (LCLC-97TM1; first compound 0.08 µM) of 0.988. The relative viability (LCLC-97TM1; first compound 0.8 µM) was 0.943, the relative viability (LCLC-97TM1; first compound 2.53 µM) was 1.04 and the relative viability (LCLC-97TM1; first compound 8 µM) was 0.899. It also gave a relative viability (HARA; first compound 0.08 µM) of 0.827, a relative viability (HARA; first compound 0.8 µM) of 0.968 and a relative viability (HARA; first compound 2.53 µM) of 1.18. It also gave a relative viability (HARA; first compound 8 µM) of 0.942, a relative viability (NCI-H2126; first compound 0.08 µM) of 1.12 and a relative viability (NCI-H2126; first compound 0.8 µM) of 1.21. It also gave a relative viability (NCI-H2126; first compound 2.53 µM) of 1.23, a relative viability (NCI-H2126; first compound 8 µM) of 1.2 and a relative viability (H3255; first compound 0.08 µM) of 0.831. It also gave a relative viability (H3255; first compound 0.8 µM) of 1.01, a relative viability (H3255; first compound 2.53 µM) of 0.82 and a relative viability (H3255; first compound 8 µM) of 0.956. For the same molecule, the relative viability (NCI-H322M; first compound 0.08 µM) was 0.938, the relative viability (NCI-H322M; first compound 0.8 µM) was 1.22 and the relative viability (NCI-H322M; first compound 2.53 µM) was 1.03. It also gave a relative viability (NCI-H322M; first compound 8 µM) of 0.961, a relative viability (NCI-H1437; first compound 0.08 µM) of 1.25 and a relative viability (NCI-H1437; first compound 0.8 µM) of 1.24. It also gave a relative viability (NCI-H1437; first compound 2.53 µM) of 1.27, a relative viability (NCI-H1437; first compound 8 µM) of 1.06 and a relative viability (HCC-827; first compound 0.08 µM) of 0.993. It also gave a relative viability (HCC-827; first compound 0.8 µM) of 1.11, a relative viability (HCC-827; first compound 2.53 µM) of 1.03 and a relative viability (HCC-827; first compound 8 µM) of 1.16. It also gave a relative viability (NCI-H460; first compound 0.08 µM) of 0.996, a relative viability (NCI-H460; first compound 0.8 µM) of 1.03 and a relative viability (NCI-H460; first compound 2.53 µM) of 1.11. For the same molecule, the relative viability (NCI-H460; first compound 8 µM) was 1.08, the relative viability (HCC-15; first compound 0.08 µM) was 1.01 and the relative viability (HCC-15; first compound 0.8 µM) was 1.08. For the same molecule, the relative viability (HCC-15; first compound 2.53 µM) was 1.14, the relative viability (HCC-15; first compound 8 µM) was 1.08 and the relative viability (NCI-H441; first compound 0.08 µM) was 1.05. The relative viability (NCI-H441; first compound 0.8 µM) was 1.09, the relative viability (NCI-H441; first compound 2.53 µM) was 1.22 and the relative viability (NCI-H441; first compound 8 µM) was 1.09. For the same molecule, the relative viability (LC-2-ad; first compound 0.08 µM) was 0.916, the relative viability (LC-2-ad; first compound 0.8 µM) was 0.987 and the relative viability (LC-2-ad; first compound 2.53 µM) was 1.13. For the same molecule, the relative viability (LC-2-ad; first compound 8 µM) was 0.861, the relative viability (SW 900; first compound 0.08 µM) was 0.89 and the relative viability (SW 900; first compound 0.8 µM) was 0.915. The relative viability (SW 900; first compound 2.53 µM) was 1.02, the relative viability (SW 900; first compound 8 µM) was 0.876 and the relative viability (ChaGo-K-1; first compound 0.08 µM) was 0.951. The relative viability (ChaGo-K-1; first compound 0.8 µM) was 1.01, the relative viability (ChaGo-K-1; first compound 2.53 µM) was 1 and the relative viability (ChaGo-K-1; first compound 8 µM) was 1.01. For the same molecule, the relative viability (PC-3 [JPC-3]; first compound 0.08 µM) was 1.01, the relative viability (PC-3 [JPC-3]; first compound 0.8 µM) was 1.02 and the relative viability (PC-3 [JPC-3]; first compound 2.53 µM) was 0.985. It also gave a relative viability (PC-3 [JPC-3]; first compound 8 µM) of 1.08, a relative viability (NCI-H1915; first compound 0.08 µM) of 1.14 and a relative viability (NCI-H1915; first compound 0.8 µM) of 1.1. The relative viability (NCI-H1915; first compound 2.53 µM) was 1.13, the relative viability (NCI-H1915; first compound 8 µM) was 1.13 and the relative viability (NCI-H661; first compound 0.08 µM) was 1.03. For the same molecule, the relative viability (NCI-H661; first compound 0.8 µM) was 1.08, the relative viability (NCI-H661; first compound 2.53 µM) was 0.994 and the relative viability (NCI-H661; first compound 8 µM) was 0.976. For the same molecule, the relative viability (LU99A; first compound 0.08 µM) was 0.907, the relative viability (LU99A; first compound 0.8 µM) was 0.934 and the relative viability (LU99A; first compound 2.53 µM) was 0.864. It also gave a relative viability (LU99A; first compound 8 µM) of 0.766, a relative viability (NCI-H1793; first compound 0.08 µM) of 0.712 and a relative viability (NCI-H1793; first compound 0.8 µM) of 0.76. For the same molecule, the relative viability (NCI-H1793; first compound 2.53 µM) was 0.916 and the relative viability (NCI-H1793; first compound 8 µM) was 0.765.
